How the values were obtained:
human CRF receptor = biological target: T1, human CRF receptor (Homo sapiens, UniProt P34998); assay: Measurement of CRF Binding Inhibitory Rate (receptor binding experiment with 125I-CRF); details: human CRF receptor expressing CHO cellular membrane fraction; 50 pM ovine 125I-CRF; 0.05 nM to 10 μM of compound; room temperature 1.5 hr; read-out: IC50 values (CRF binding inhibition)
T1 construct: expressed in transfected cells; host or cells: CHO cells (membrane fraction)
T1 sequence (P34998 24-415): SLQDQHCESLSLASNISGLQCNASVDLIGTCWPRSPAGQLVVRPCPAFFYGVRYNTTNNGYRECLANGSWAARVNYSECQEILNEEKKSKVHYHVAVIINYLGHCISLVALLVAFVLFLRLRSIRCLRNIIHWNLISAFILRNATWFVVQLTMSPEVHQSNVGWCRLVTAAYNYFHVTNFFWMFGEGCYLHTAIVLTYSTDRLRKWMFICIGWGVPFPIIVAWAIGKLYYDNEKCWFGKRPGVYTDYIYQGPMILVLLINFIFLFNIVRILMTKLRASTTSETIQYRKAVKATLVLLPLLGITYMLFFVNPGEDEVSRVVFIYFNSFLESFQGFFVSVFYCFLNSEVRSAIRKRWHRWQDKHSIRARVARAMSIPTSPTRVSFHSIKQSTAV
Procedure: Measurement of CRF Binding Inhibitory Rate
A receptor binding experiment was carried out using a human CRF receptor expressing CHO cellular membrane fraction and ovine CRF, [^125I]-tyr^0(^125I-CRF). 1000 nM of a test compound was incubated with 1 μg of human CRF receptor expressing CHO cellular membrane fraction and 50 pM of ^125I-CRF in a binding assay buffer (50 mM Tris-HCl, 5 mM EDTA, 10 mM MgCl2, 0.05% CHAPS, 0.1% BSA, 0.5 mM PMSF, 0.1 μg/mL pepstatin, 20 μg/mL leupeptin, pH 7.5). In addition, for measuring nonspecific binding (NSB), 0.1 μM unlabelled human Urocortin was incubated with 5 μg of human CRF receptor expressing CHO cellular membrane fraction and 50 pM of ^125I-CRF in a binding assay buffer. After a binding reaction was carried out at room temperature for 1.5 hr, the membrane was entrapped on a glass filter (UniFilter plate GF-C/Perkin Elmer) by suction filtration using a cell harvester (Perkin Elmer), and washed with ice-cooled 50 mM Tris-HCl (pH 7.5). After drying the glass filter, a liquid scintillation cocktail (Microscinti 0, Perkin Elmer) was added, and the radioactivity of ^125I-CRF remaining on a glass filter was measured using Topcount (Perkin Elmer).
(TB-SB)/(TB-NSB)×100 (SB: radioactivity when a compound is added, TB: maximum binding radioactivity, NSB: nonspecific binding radioactivity) were calculated to obtain binding inhibitory rates under the range of the presence from 0.05 nM to 10 μM of each compounds. The IC50 values were calculated by using GraphPad Prism software.

| SMILES | melting point | IC50 (human CRF receptor) |
| --- | --- | --- |
| CCC(CC)c1ccc(Cl)c2nc(Nc3c(C)cc(C(N)=O)cc3OC)n(C)c12 [Example 48, 4-{[4-Chloro-7-(1-ethylpropyl)-1-methyl-1H-benzimidazol-2-yl]amino}-3-methoxy-5-methylbenzamide] | 298 to 299 °C |  |
| CCC(CC)c1ccc(Cl)c2nc(Oc3c(Br)cc(C(F)(F)F)nc3C)n(C)c12 [Example 75, 2-{[4-Bromo-2-methyl-6-(trifluoromethyl)pyridin-3-yl]oxy}-4-chloro-7-(1-ethylpropyl)-1-methyl-1H-benzimidazole] |  | < 1 µM |
| CCC(CC)c1ccc(Cl)c2nc(Nc3c(C)cc(Cl)cc3Br)n(C)c12 [Example 49, N-(2-Bromo-4-chloro-6-methylphenyl)-4-chloro-7-(1-ethylpropyl)-1-methyl-1H-benzimidazol-2-amine] | 232 to 233 °C |  |
| CCC(CC)c1ccc(OC)c2nc(Oc3ccc(C)nc3C(F)(F)F)n(C)c12 [Example 11, 7-(1-Ethylpropyl)-4-methoxy-1-methyl-2-{[6-methyl-2-(trifluoromethyl)pyridin-3-yl]oxy}-1H-benzimidazole] | 135 to 137 °C |  |
| CCC(CC)c1ccc(Cl)c2nc(Nc3ccc(Cl)cc3Cl)n(CCO)c12 [Example 100, 2-[4-Chloro-2-[(2,4-dichlorophenyl)amino]-7-(1-ethylpropyl)-1H-benzimidazol-1-yl]ethanol] | 192 to 193 °C |  |
| CCC(CC)c1ccc(OC)c2nc(Nc3ccc(C(F)(F)F)cc3Cl)n(C)c12 [Example 16, N-[2-Chloro-4-(trifluoromethyl)phenyl]-7-(1-ethylpropyl)-4-methoxy-1-methyl-1H-benzimidazol-2-amine] | 170 to 171 °C |  |
| CCC(CC)c1ccc(OC)c2nc(Oc3ncc(Br)cc3C)n(C)c12 [Example 8, 2-[(5-Bromo-3-methylpyridin-2-yl)oxy]-7-(1-ethylpropyl)-4-methoxy-1-methyl-1H-benzimidazole] |  | < 1 µM |
| CCC(CC)c1ccc(OC)c2nc(Nc3ccc(Cl)cc3C(F)(F)F)n(C)c12 [Example 17, N-[4-Chloro-2-(trifluoromethyl)phenyl]-7-(1-ethylpropyl)-4-methoxy-1-methyl-1H-benzimidazol-2-amine] | 122 to 123 °C |  |
| CCOc1ccc(C(CC)CC)c2c1nc(Oc1c(C)cc(Cl)cc1Cl)n2C [Example 73, 2-(2,4-Dichloro-6-methylphenoxy)-4-ethoxy-7-(1-ethylpropyl)-1-methyl-1H-benzimidazole] | 116 to 117 °C |  |
| CCC(CC)c1ccc(Cl)c2nc(Nc3c(C)cc(S(C)(=O)=O)cc3OC)n(C)c12 [Example 47, 4-Chloro-7-(1-ethylpropyl)-N-[2-methoxy-6-methyl-4-(methylsulfonyl)phenyl]-1-methyl-1H-benzimidazol-2-amine] | 234 to 236 °C |  |
| CCC(CC)c1ccc(OC)c2nc(Nc3ccc(OC(F)(F)F)cc3Cl)n(C)c12 [Example 18, N-[2-Chloro-4-(trifluoromethoxy)phenyl]-7-(1-ethylpropyl)-4-methoxy-1-methyl-1H-benzimidazol-2-amine] | 175 to 177 °C |  |
| CCC(CC)c1ccc(Cl)c2nc(Nc3c(C)cc(-n4cccn4)cc3OC)n(C)c12 [Example 57, 4-Chloro-7-(1-ethylpropyl)-N-[2-methoxy-6-methyl-4-(1H-pyrazol-1-yl)phenyl]-1-methyl-1H-benzimidazol-2-amine] | 237 to 239 °C |  |
| CCC(CC)c1ccc(OC)c2nc(Oc3ccc(Cl)cc3CN(C)C)n(C)c12 [Example 9, 1-(5-Chloro-2-{[7-(1-ethylpropyl)-4-methoxy-1-methyl-1H-benzimidazol-2-yl]oxy}phenyl)-N,N-dimethylmethanamine] | 121 to 123 °C |  |
| CCC(CC)c1ccc(OC)c2nc(Oc3ccc(OC(F)(F)F)cc3Cl)n(C)c12 [Example 1, 2-[2-Chloro-4-(trifluoromethoxy)phenoxy]-7-(1-ethylpropyl)-4-methoxy-1-methyl-1H-benzimidazole] |  | < 1 µM |
| CCc1ccc(C(CC)CC)c2c1nc(Oc1c(C)cc(Cl)cc1Cl)n2C [Example 71, 2-(2,4-Dichloro-6-methylphenoxy)-4-ethyl-7-(1-ethylpropyl)-1-methyl-1H-benzimidazole] | 96 to 97 °C |  |
| CCC(CC)c1ccc(Cl)c2nc(Oc3c(Cl)cc(OC(F)(F)F)cc3Br)n(C)c12 [Example 41, 2-[2-Bromo-6-chloro-4-(trifluoromethoxy)phenoxy]-4-chloro-7-(1-ethylpropyl)-1-methyl-1H-benzimidazole] | 149 to 151 °C |  |
| CCC(CC)c1ccc(Cl)c2nc(Nc3c(C)cc(Cl)cc3OC)[nH]c12 [Example 67, 4-Chloro-N-(4-chloro-2-methoxy-6-methylphenyl)-7-(1-ethylpropyl)-1H-benzimidazol-2-amine] |  | < 1 µM |
| CCC(CC)c1ccc(Cl)c2nc(Oc3c(Cl)cc(Cl)cc3[Si](C)(C)C)n(C)c12 [Example 60, 4-Chloro-2-[2,4-dichloro-6-(trimethylsilyl)phenoxy]-7-(1-ethylpropyl)-1-methyl-1H-benzimidazole] |  | < 1 µM |
| CCC(CC)c1ccc(Cl)c2nc(Oc3c(C)cc(Br)cc3Cl)n(C)c12 [Example 33, 2-(4-Bromo-2-chloro-6-methylphenoxy)-4-chloro-7-(1-ethylpropyl)-1-methyl-1H-benzimidazole] | 163 to 164 °C |  |
| CCC(CC)c1ccc(OC)c2nc(Oc3nn(C)c(C)c3C)n(C)c12 [Example 14, 7-(1-Ethylpropyl)-4-methoxy-1-methyl-2-[(1,4,5-trimethyl-1H-pyrazol-3-yl)oxy]-1H-benzimidazole] |  | < 1 µM |
| CCC(CC)c1ccc(Cl)c2nc(Oc3cccc4c3CN(C)C4)n(C)c12 [Example 54, 4-Chloro-7-(1-ethylpropyl)-1-methyl-2-[(2-methyl-2,3-dihydro-1H-isoindol-4-yl)oxy]-1H-benzimidazole] | 99 to 100 °C |  |
| CCC(CC(=O)O)c1ccc(Cl)c2nc(Oc3c(C)cc(Cl)cc3Cl)n(C)c12 (stereo not drawn) [Example 99, 3-[4-Chloro-2-(2,4-dichloro-6-methylphenoxy)-1-methyl-1H-benzimidazol-7-yl]pentanoic acid] | 201 to 202 °C |  |
| CCC(CC)c1ccc(Cl)c2nc(Oc3c(C)cc([Si](C)(C)C)cc3Cl)n(C)c12 | 146 to 148 °C |  |
| CCC(CC)c1ccc(Cl)c2nc(Nc3c(C)cc(-n4ccc(C(F)(F)F)n4)cc3OC)n(C)c12 [Example 58, 4-Chloro-7-(1-ethylpropyl)-N-{2-methoxy-6-methyl-4-[3-(trifluoromethyl)-1H-pyrazol-1-yl]phenyl}-1-methyl-1H-benzimidazol-2-amine] | 249 to 251 °C |  |
| CCC(CC)c1ccc(OC)c2nc(Oc3ccc(OC(F)(F)F)cc3-n3ccnc3)n(C)c12 [Example 82, 7-(1-Ethylpropyl)-2-[2-(1H-imidazol-1-yl)-4-(trifluoromethoxy)phenoxy]-4-methoxy-1-methyl-1H-benzimidazole] | 168 to 169 °C |  |
| CCOc1ccc(C(CC)CC)c2c1nc(Oc1ccc(Cl)cc1Br)n2C [Example 72, 2-(2-Bromo-4-chlorophenoxy)-4-ethoxy-7-(1-ethylpropyl)-1-methyl-1H-benzimidazole] | 93 to 94 °C |  |
| CCC(CC)c1ccc(Cl)c2nc(Nc3c(C)cc([S+](C)[O-])cc3OC)n(C)c12 (stereo not drawn) [Example 46, 4-Chloro-7-(1-ethylpropyl)-N-[2-methoxy-6-methyl-4-(methylsulfinyl)phenyl]-1-methyl-1H-benzimidazol-2-amine] | 222 to 223 °C |  |
| CCC(CC)c1ccc(OC)c2nc(Nc3ccc(Cl)cc3N(C)C)n(C)c12 [Example 21, 4-Chloro-N^1-[7-(1-ethylpropyl)-4-methoxy-1-methyl-1H-benzimidazol-2-yl]-N^2,N^2-dimethylbenzene-1,2-diamine] | 47 to 49 °C |  |
| CCC(CC)c1ccc(Cl)c2nc(Oc3c(Cl)cc(Cl)cc3NC)n(C)c12 [Example 28, 3,5-Dichloro-2-{[4-chloro-7-(1-ethylpropyl)-1-methyl-1H-benzimidazol-2-yl]oxy}-N-methylaniline] | 162 to 163 °C |  |
| CCC(CC)c1ccc(Cl)c2nc(Oc3c(Cl)cc(Cl)cc3Br)n(C)c12 [Example 23, 2-(2-Bromo-4,6-dichlorophenoxy)-4-chloro-7-(1-ethylpropyl)-1-methyl-1H-benzimidazole] | 165 to 167 °C |  |
